Consider twelve compounds from US5063243A, “Derivative of caffeic acid and pharmaceutical composition containing the same” (Suntory, Ltd., priority 1988, dated 1991).

Each structure is given as a SMILES string.

What all share (assay type): biochemical
In assay [1] the target is T1, 12-lipoxygenase (Rattus norvegicus, UniProt F1LQ70).
T1 construct: Washed platelet was prepared in the usual way; from tissue; host or cells: rat blood platelets (Method 1: washed platelets; Method 2: frozen, thawed and ultrasonified platelets; Method 3: platelet soluble fraction after freeze-thaw and centrifugation)
T1 sequence (F1LQ70 1-663): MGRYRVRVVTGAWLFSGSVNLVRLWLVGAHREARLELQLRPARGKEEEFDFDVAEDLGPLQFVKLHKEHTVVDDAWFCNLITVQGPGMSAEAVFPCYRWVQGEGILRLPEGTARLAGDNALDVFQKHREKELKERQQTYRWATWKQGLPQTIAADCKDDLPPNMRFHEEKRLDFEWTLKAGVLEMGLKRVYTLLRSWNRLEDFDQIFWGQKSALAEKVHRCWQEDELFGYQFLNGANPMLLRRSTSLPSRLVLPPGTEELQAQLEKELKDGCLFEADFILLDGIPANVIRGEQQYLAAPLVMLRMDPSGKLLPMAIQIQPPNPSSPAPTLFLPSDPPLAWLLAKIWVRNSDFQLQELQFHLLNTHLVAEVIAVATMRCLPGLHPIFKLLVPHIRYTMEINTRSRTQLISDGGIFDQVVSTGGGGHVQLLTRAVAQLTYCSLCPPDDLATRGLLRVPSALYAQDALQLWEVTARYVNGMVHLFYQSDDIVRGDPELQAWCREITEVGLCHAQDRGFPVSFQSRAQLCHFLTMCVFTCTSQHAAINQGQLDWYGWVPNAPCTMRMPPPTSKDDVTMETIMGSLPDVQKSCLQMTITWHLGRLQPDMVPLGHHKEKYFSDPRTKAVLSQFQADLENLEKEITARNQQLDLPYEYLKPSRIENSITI
In words: 12-lipoxygenase inhibitory activity, Method 2 (ultrasonified rat platelet enzyme solution, 12-HETE production). The following applies: 5 min, sample compound 1 μM, arachidonic acid 4.3 μM, 5 minutes at 37° C., control without sample compound = 100%, read-out: production index of 12-HETE, Method 2 (%). On the procedure:
The 12-lipoxygenase inhibitory activity of the compounds of the present invention was measured by conducting the three types of pharmacological tests described below. Citrated blood was collected from the heart of a rat and platelet-rich plasma was prepared in the usual way. The plasma was washed twice with isotonic buffer solution (A) [134 mM NaCl, 5 mM D-glucose, 1 mM EDTA, 1 mM EGTA, 15 mM Tris-HCl (pH=7.4)], frozen and stored at -80° C. It was thawed before use, ultrasonified in ice water and used as the enzyme solution. To the isotonic buffer solution (A) were added 1 mM GSH, the sample compound (final concentration: 1 μM) and the enzyme solution (300 to 500 μg protein) and the mixture was pre-incubated for 5 minutes at 37° C.; then [^14 C]arachidonic acid (0.05 μCi) (final concentration: 4.3 μM) was further added and reacted for 5 minutes. […] The reduction in 12-HETE production was used as the index of 12-lipoxygenase inhibitory activity.

The target in assay [2] is T1, 12-lipoxygenase. In words: 12-lipoxygenase inhibitory activity, Method 1 (washed rat platelet, 12-HETE production). Conditions: sample compound 10 μM, 3 to 5 minutes at 37° C., control without sample compound = 100%, read-out: production index of 12-HETE, Method 1 (%). On the procedure:
(§1) The 12-lipoxygenase inhibitory activity of the compounds of the present invention was measured by conducting the three types of pharmacological tests described below.
Citrated blood was collected from the abdominal aorta of a rat. Washed platelet was prepared in the usual way, diluted with phosphate buffer (pH=8.0) containing 0.45% NaCl and used as the enzyme solution. To the solution were added the sample compound (10 μM), [^14 C]arachidonicacid (0.2 μCi) and arachidonic acid (3 μg) and the mixture was reacted for 3 to 5 minutes at 37° C. The reaction mixture was developed by thin layer chromatography and 12-HETE was identified by a radio chromato scanner. The reduction in 12-HETE production which resulted was used as the index of 12-lipoxygenase inhibitory activity.
(§2) The production indexes of 12-HETE under the inhibitory influence of the compounds of the present invention are shown in Table 2, where the production amount of the control experiment (in the absence of the sample compound) is 100%.

Assay [3] concerns the target T1, 12-lipoxygenase. In words: 12-lipoxygenase inhibitory activity, Method 3 (rat platelet soluble fraction, 12-HETE production). Conditions: 5 min, sample compound 10 μM, arachidonic acid 40 μM, 5 minutes at 37° C., control without sample compound = 100%, read-out: production index of 12-HETE, Method 3 (%). On the procedure: as §1
The platelet-rich plasma obtained in the same way as described in Method 2 was washed successively with isotonic buffer solution (A) and isotonic buffer solution (B) [134 mM NaCl, 5 mM D-glucose, 0.1 mM DETA, 0.1 mM EGTA, 15 mM Tris-HCl (pH=7.4)] in that order, and suspended in a hypotonic buffer solution (C) [25 mM Tris-HCl (pH=7.7)]. The suspension was treated by a "freeze-thaw" procedure three times and centrifuged at 10500× g for 60 minutes. An aliquot of the supernatant (platelet soluble fraction) was used as the enzyme solution. To the hypotonic buffer solution (C) were added 1 mM GSH, [^14 C]arachidonic acid (0.025 μCi) (final concentration: 40 μM), the sample compound (final concentration: 10 μM) and the enzyme solution (50 μg protein) and the mixture was reacted for 5 minutes at 37° C. The index of 12-lipoxygenase inhibitory activity was obtained in the same way as described in Method 2.
as §2

Consider `O=c1cc(-c2ccccc2)oc2cc(O)c(O)c(O)c12` [Baicalein, baicalein, reference compound], for which, in assay [1], the activity at 1 µM was found to be 9.8%. Further, the activity at 10 µM in assay [2] is 27%; in assay [3], 22.7%.
On to `CCOC(=O)C(C#N)=Cc1ccc(O)c(O)c1` [Compound No. 1, Ethyl 2-cyano-3-(3,4-dihydroxyphenyl)-2-propenoate], for which the activity at 10 µM in assay [2] was 38.1%.
Consider `COC(=O)C(C#N)=Cc1ccc(O)c(O)c1` [Compound No. 5, methyl 2-cyano-3-(3,4-dihydroxyphenyl)-2-propenoate], for which, in assay [2], the activity at 10 µM was 36%.
Same read-out and setting: the value for `CC(C)OC(=O)C(C#N)=Cc1ccc(O)c(O)c1` [Compound No. 6, isopropyl 2-cyano-3-(3,4-dihydroxyphenyl)-2-propenoate] was 31.4%.
As for `N#CC(=Cc1ccc(O)c(O)c1)C(=O)OCCc1ccccc1` [Compound No. 9, Phenethyl 2-cyano-3-(3,4-dihydroxyphenyl)-2-propenoate], the activity at 1 µM in assay [1] amounted to 10%. In assay [3], the activity at 10 µM is 25.1%.
Regarding `N#CC(=Cc1ccc(O)c(O)c1)C(=O)OCCCc1ccccc1` [compound 10, Phenylpropyl 2-cyano-3-(3,4-dihydroxyphenyl)-2-propenoate], the activity at 1 µM in assay [1] was determined as 12.1%.
On the same count and under the same terms, in the case of `N#CC(=Cc1ccc(O)c(O)c1)C(=O)OCCCCc1ccccc1` [compound 11, Phenylbutyl 2-cyano-3-(3,4-dihydroxyphenyl)-2-propenoate] it was 14.2%.
As for `COc1ccc(CCOC(=O)C(C#N)=Cc2ccc(O)c(O)c2)cc1` [compound 13, 4-Methoxyphenethyl 2-cyano-3-(3,4-dihydroxyphenyl)-2-propenoate], in assay [3], the activity at 10 µM came out at 19.5%.
In the case of `COc1ccccc1CCOC(=O)C(C#N)=Cc1ccc(O)c(O)c1` [compound 14, 2-Methoxyphenethyl 2-cyano-3-(3,4-dihydroxyphenyl)-2-propenoate], the activity at 10 µM in assay [3] was found to be 19.1%.
`N#CC(=Cc1ccc(O)c(O)c1)C(=O)OCCc1cccs1` [compound 15, 2-(2-Thienyl)ethyl 2-cyano-3-(3,4-dihydroxyphenyl)-2-propenoate]: in assay [1], the activity at 1 µM was determined as 8.7%.
As to `N#CC(=Cc1ccc(O)c(O)c1)C(=O)OCC=Cc1ccccc1` [compound 17, 3-Phenyl-2-propenyl 2-cyano-3-(3,4-dihydroxyphenyl)-2-propenoate], the activity at 1 µM in assay [1] was found to be 13.2%.
Regarding `N#CC(=Cc1ccc(O)c(O)c1)C(=O)OCCOc1ccccc1` [compound 18, 2-Phenoxyethyl 2-cyano-3-(3,4-dihydroxyphenyl)-2-propenoate], the activity at 1 µM in assay [1] turned out to be 8.5%.
